# Experimental data taken from US9790173B2, “Alpha-7 nicotinic acetylcholine receptor modulators and uses thereof-I” (MERCK SHARP & DOHME CORP., priority 2012, dated 2017).
# Experiments:
# [1] = target: T1, rat α7 nAChRs (Rattus norvegicus, UniProt Q05941); test: Automated planar patch clamp (Patchliner) electrophysiology, α7 nAChR PAM activity; format: cell-based; set-up: key to Type I or Type II: I: Type 1 predominately affects the peak current; Type II modulators affect the peak current and also delay the desensitization of the receptor; conditions: for Type I or Type II: modulator type based on the electrophysiology trace; for activation at 3 µM: GH4-C1, 3 μM compound in the presence of acetylcholine, GH4C1 cells expressing rat α7 nAChRs, peak current, read-out: Peak potentiation at 3 μM compound
# T1 construct: expressed in transfected cells; host or cells: GH4C1 cells (rat pituitary line) stably expressing α7 nAChR
# T1 sequence (Q05941 23-502): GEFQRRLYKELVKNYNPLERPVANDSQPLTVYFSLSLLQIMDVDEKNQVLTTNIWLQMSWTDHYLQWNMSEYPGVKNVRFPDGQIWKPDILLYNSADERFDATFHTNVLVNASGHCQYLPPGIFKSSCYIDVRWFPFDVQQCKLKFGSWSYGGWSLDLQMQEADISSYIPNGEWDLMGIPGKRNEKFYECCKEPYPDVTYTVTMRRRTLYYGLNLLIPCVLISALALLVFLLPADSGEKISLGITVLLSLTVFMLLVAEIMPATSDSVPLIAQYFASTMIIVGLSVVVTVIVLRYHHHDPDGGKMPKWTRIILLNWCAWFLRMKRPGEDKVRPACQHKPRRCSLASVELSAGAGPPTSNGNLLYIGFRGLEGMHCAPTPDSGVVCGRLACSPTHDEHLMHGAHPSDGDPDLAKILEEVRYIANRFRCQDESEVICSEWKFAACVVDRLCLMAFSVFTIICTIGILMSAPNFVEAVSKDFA
# Procedure: Tested compounds were prepared by serial dilutions of 10 mM stock solution in DMSO to concentrations of the compound 1000 times higher than its final concentration. The DMSO stock solutions were then diluted 1:100 in the recording buffer bringing DMSO concentration to 1%. These intermediate solutions were further diluted 10 times with buffer to obtain final concentrations and lower DMSO concentration to 0.1%. […]
# Compounds of the invention may be evaluated by electrophysiology using a Patchliner® (Nanion Technologies GmbH, Germany), an automated planar patch-clamp platform of medium throughput was used as a first step in electrophysiological assessment of α7 nAChR positive allosteric modulators (PAMs).
# Briefly, intracellular (KCl—50 mM, NaCl—10 mM, KF—60 mM, EGTA—20 mM, HEPES—10 mM, pH—7.2, 285 mOsmol) and extracellular (NaCl—140 mM, KCl—4 mM, CaCl2—2 mM, MgCl2—1 mM, HEPES—10 mM, D-Glucose—5 mM, pH—7.4, 298 mOsmol) solutions were automatically pipetted onto NPC-16 chip (medium resistance ˜2.5-2.6 MΩ). Suspension of GH4C1 cells expressing rat α7 nAChRs was introduced in 4 wells of a medium resistance chip and suction was applied to attract cells in the holes. The extracellular solution was subsequently exchanged to high calcium solution (NaCl—80 mM, KCl—3 mM, CaCl2—45 mM, HEPES—10 mM, pH—7.4, 298 mOsmol) followed by gigaohm seal formation and obtaining whole-cell configuration. The rest of protocol was carried out in the high-calcium recording solution. Holding potential was −70 mV throughout the protocol. A control response to 60 or 100 μM of ACh was obtained first. Next, a cell was pre-incubated with compound of interest at 3 μM for ˜30 s after which the compound was co-applied with acetylcholine.
# Amplitude of the responses was measured in HEKA Patchmaster software (HEKA Elektronik, Germany) and percentage of potentiation calculated. Recording was repeated […] a minimum of two replicates had been obtained per compound.
# Compounds shown in Table 1 were evaluated by automated planar patch clamp on the Patchliner® as described in Example P2.1. […] The compounds are designated either as Type I or Type II modulators based on the electrophysiology trace. Type 1 predominately affects the peak current. Type II modulators affect the peak current and also delay the desensitization of the receptor.
Structure (SMILES),melting point [°C],Type I or Type II [1],activation at 3 µM [1] [%]
"CC1(C)[C@H](CNc2cccc(N3CCOCC3)c2)[C@H]1c1ccc(S(N)(=O)=O)cc1 [Example 26, ±trans 4-[2,2-dimethyl-3-({[3-(morpholin-4-yl)phenyl]amino}methyl)cyclopropyl]benzenesulfonamide]",–,II,455
"Cc1ccc(F)cc1NC[C@@H]1[C@@H](c2ccc(S(N)(=O)=O)cc2)C1(C)C [Example 29, 4-[(1R,3R)-3-{[(5-fluoro-2-methylphenyl)amino]methyl}-2,2-dimethylcyclopropyl]benzenesulfonamide]",–,I,456
"Cc1ccc(F)cc1NC[C@H]1[C@H](c2ccc(S(N)(=O)=O)cc2)C1(C)C [Example 31, 4-[(1S,3S)-3-{[(5-fluoro-2-methylphenyl)amino]methyl}-2,2-dimethylcyclopropyl]benzenesulfonamide]",–,II,–
"Cc1cc(F)c(F)cc1NC[C@H]1[C@H](c2ccc(S(N)(=O)=O)cc2)C1(C)C [Example 32, 4-[(1S,3S)-3-{[(4,5-difluoro-2-methylphenyl)amino]methyl}-2,2-dimethylcyclopropyl]benzenesulfonamide]",–,II,–
"CCc1ccc(F)cc1NC[C@H]1[C@H](c2ccc(S(N)(=O)=O)cc2)C1(C)C [Example 39, ±trans 4-[3-{[(2-ethyl-5-fluorophenyl)amino]methyl}-2,2-dimethylcyclopropyl]benzenesulfonamide]",–,II,–
"CC1(C)[C@@H](CNc2cc(OC(F)(F)F)ccc2F)[C@@H]1c1ccc(S(N)(=O)=O)cc1 [Example 40, ±trans 4-[3-({[2-fluoro-5-(trifluoromethoxy)phenyl]amino}methyl)-2,2-dimethylcyclopropyl]benzenesulfonamide]",–,II,309
"CC1(C)[C@@H](CNc2cc(F)ccc2OC(F)(F)F)[C@@H]1c1ccc(S(N)(=O)=O)cc1 [Example 41, ±trans 4-[3-({[5-fluoro-2-(trifluoromethoxy)phenyl]amino}methyl)-2,2-dimethylcyclopropyl]benzenesulfonamide]",–,I,–
"COc1ccc(Cl)cc1NC[C@@H]1[C@@H](c2ccc(-c3ccccc3O)cc2)C1(C)C [Example 43, ±trans 4′-[3-{[(5-chloro-2-methoxyphenyl)amino]methyl}-2,2-dimethylcyclopropyl]biphenyl-2-ol]",–,I,100
"CCOc1ccccc1NC[C@@H]1[C@@H](c2ccc(S(N)(=O)=O)cc2)C1(C)C [Example 44, ±trans 4-[3-{[(2-ethoxyphenyl)amino]methyl}-2,2-dimethylcyclopropyl]benzenesulfonamide]",–,I,–
"COc1ccc(Cl)cc1NC[C@@H]1[C@@H](c2ccc(S(=O)(=O)NO)cc2)C1(C)C [Example 55, ±trans 4-[3-{[(5-chloro-2-methoxyphenyl)amino]methyl}-2,2-dimethylcyclopropyl]-N-hydroxybenzenesulfonamide]",–,I,724
"COc1ccc(Cl)cc1NC[C@@H]1[C@@H](c2ccc(S(=O)(=O)NN)cc2)C1(C)C [Example 56, ±trans 4-[3-{[(5-chloro-2-methoxyphenyl)amino]methyl}-2,2-dimethylcyclopropyl]benzenesulfonohydrazide]",–,I,131

# Second part, led by results:
melting point [°C],Structure (SMILES),Type I or Type II [1],activation at 3 µM [1] [%]
56 to 58,"COc1ccc(NC[C@@H]2[C@@H](c3ccc(S(N)(=O)=O)cc3)C23CCCC3)c(OC)n1 [Example 9, ±trans 4-(2-{[(2,6-dimethoxypyridin-3-yl)amino]methyl}spiro[2.4]hept-1-yl)benzenesulfonamide]",II,–
60 to 62,"Cc1ccc(Cl)cc1NC[C@@H]1[C@@H](c2ccc(S(N)(=O)=O)cc2)C1(C)C [Example 22, ±trans 4-[3-{[(5-chloro-2-methylphenyl)amino]methyl}-2,2-dimethylcyclopropyl]benzenesulfonamide]",II,–
164 to 166,"COc1ccc(F)cc1NC[C@@H]1[C@@H](c2ccc(S(N)(=O)=O)cc2)C1(C)C [Example 23, ±trans 4-[3-{[(5-fluoro-2-methoxyphenyl)amino]methyl}-2,2-dimethylcyclopropyl]benzenesulfonamide]",II,–
120 to 122,"CC1(C)[C@H](CNc2cccc(Cl)c2)[C@H]1c1ccc(S(N)(=O)=O)cc1 [Example 24, ±trans 4-[3-{[(3-chlorophenyl)amino]methyl}-2,2-dimethylcyclopropyl]benzenesulfonamide]",II,901
122 to 124,"CCOc1ccc(Cl)cc1NC[C@@H]1[C@@H](c2ccc(S(N)(=O)=O)cc2)C1(C)C [Example 27, ±trans 4-[3-{[(5-chloro-2-ethoxyphenyl)amino]methyl}-2,2-dimethylcyclopropyl]benzenesulfonamide]",I,–
68 to 70,"COc1ccc(C(F)(F)F)cc1NC[C@@H]1[C@@H](c2ccc(S(N)(=O)=O)cc2)C1(C)C [Example 28, ±trans 4-[3-({[2-methoxy-5-(trifluoromethyl)phenyl]amino}methyl)-2,2-dimethylcyclopropyl]benzenesulfonamide]",II,–
174 to 176,"Cc1ncccc1NC[C@@H]1[C@@H](c2ccc(S(N)(=O)=O)cc2)C1(C)C [Example 36, ±trans 4-[2,2-dimethyl-3-{[(2-methylpyridin-3-yl)amino]methyl}cyclopropyl]benzenesulfonamide]",II,125
164 to 166,"Cc1cc(F)c(Cl)cc1NC[C@@H]1[C@@H](c2ccc(S(N)(=O)=O)cc2)C1(C)C [Example 37, ±trans 4-[3-{[(3-chloro-4-fluoro-2-methylphenyl)amino]methyl}-2,2-dimethylcyclopropyl]benzenesulfonamide]",II,–
98 to 100,"COc1ncccc1NC[C@@H]1[C@@H](c2ccc(S(N)(=O)=O)cc2)C1(C)C [Example 42, ±trans 4-(3-{[(2-methoxypyridin-3-yl)amino]methyl}-2,2-dimethylcyclopropyl)benzenesulfonamide]",II,–
124 to 126,"CC1(C)[C@H](CNc2cc(Cl)ccc2C(F)(F)F)[C@H]1c1ccc(S(N)(=O)=O)cc1 [Example 45, ±trans 4-[3-({[5-chloro-2-(trifluoromethyl)phenyl]amino}methyl)-2,2-dimethylcyclopropyl]benzenesulfonamide]",I,–
82 to 84,"Cc1cccnc1NC[C@@H]1[C@@H](c2ccc(S(N)(=O)=O)cc2)C12CCCC2 [Example 49, ±trans 4-[2-{[(3-methylpyridin-2-yl)amino]methyl}spiro[2.4]hept-1-yl]benzenesulfonamide]",II,–
115 to 118,"NS(=O)(=O)c1ccc([C@H]2C[C@@H]2CNc2cc(F)ccc2OC(F)(F)F)cc1 [Example 52, 4-[(1S,2S)-2-({[5-fluoro-2-(trifluoromethoxy)phenyl]amino}methyl)cyclopropyl]benzenesulfonamide]",II,–
126 to 128,"COc1ccc(Cl)cc1NC[C@H]1C[C@@H]1Cc1ccc(S(N)(=O)=O)cc1 [Example 54, ±trans 4-{[-2-{[(5-chloro-2-methoxyphenyl)amino]methyl}cyclopropyl]methyl}benzenesulfonamide]",I,574
